This note sets out measurements from EPA's ToxValDB 9.5 (doi:10.2903/j.efsa.2006.82r).

By NOAEL is commonly meant the highest tested level that showed no adverse finding.

One data set relates to Colinus virginianus. To be noted: for LD50: acute, oral, mortality.
For the next data set, the system named is Trichogramma cacoeciae. To be noted: not reported; mortality.
The test system of a further data set is Anas platyrhynchos. To be noted: for LD50: oral, mortality.
Another data set relates to Bird. To be noted: acute; oral; unspecified; mortality.
A further data set concerns Canidae. To be noted: oral, Dog Other, organ weight.
For a further data set, the system named is Apis mellifera. To be noted: acute; duration: 48 hours; oral; unspecified; mortality.

Converted amounts (≈) assume the structure as drawn.

Consider `COc1ccc(C(=CC(=O)N2CCOCC2)c2ccc(Cl)cc2)cc1OC` [Dimethomorph], for which the LC50 was more than 1000 mg/kg in the data set on Tagia sp. (acute, duration: 14 days, mortality) and 3.4 µg/mL (≈ 8.77 µM) with Oncorhynchus mykiss (acute, duration: 96 hours, mortality). Besides, the NOEC with Tagia sp. (chronic/long-term, duration: 8 weeks, reproduction) was not below 120 mg/kg; in the data set on Oncorhynchus mykiss (chronic/long-term, duration: 96 days, development), 0.056 mg/L. The LD50 in the data set on Colinus virginianus (diet) is more than 728 mg/kg-day; in the data set on Colinus virginianus, more than 2000 mg/kg; in the data set with Anas platyrhynchos (acute, unspecified), more than 2000 mg/kg; with Anas platyrhynchos (short-term, feed), more than 938 mg/kg-day; with Bird, 3900 mg/kg; with Apis mellifera it was more than 32.4 µg/piece. For the same molecule, the NOEL in the data set on Colinus virginianus (reproduction developmental) turned out to be 58.4 mg/kg-day; with Anas platyrhynchos (reproductive), 78.4 mg/kg-day. Also, the LEL in the data set with Trichogramma cacoeciae worked out at 115 g/ha. The NOAEL in the data set on Canidae (chronic, duration: 1 years, M/F) worked out at 4.9 mg/kg-day; with Canidae (subchronic, duration: 90 days) it was 15 mg/kg-day; with Rattus norvegicus (developmental, development) it was 60 mg/kg-day; in the data set with Rattus norvegicus (subchronic, duration: 90 days, oral), 16 mg/kg-day.
